Laboratory results taken from PMC10080691, “Enzyme-Responsive Double-Locked Photodynamic Molecular Beacon for Targeted Photodynamic Anticancer Therapy” (Journal of the American Chemical Society, 2023).

What was measured:
MMP-2 = target: T1, MMP-2 (Homo sapiens, UniProt P08253); test: MMP-2-responsive fluorescence activation and cleavage (LC-MS); assay type: biochemical; conditions: 1 μM; for on/off ratio (fluorescence intensity at 25 h / initial intensity): MMP-2 only (2 μg mL-1), PBS pH 7.4, 0.1% Tween 80, 37 °C
T1 sequence (P08253 110-660): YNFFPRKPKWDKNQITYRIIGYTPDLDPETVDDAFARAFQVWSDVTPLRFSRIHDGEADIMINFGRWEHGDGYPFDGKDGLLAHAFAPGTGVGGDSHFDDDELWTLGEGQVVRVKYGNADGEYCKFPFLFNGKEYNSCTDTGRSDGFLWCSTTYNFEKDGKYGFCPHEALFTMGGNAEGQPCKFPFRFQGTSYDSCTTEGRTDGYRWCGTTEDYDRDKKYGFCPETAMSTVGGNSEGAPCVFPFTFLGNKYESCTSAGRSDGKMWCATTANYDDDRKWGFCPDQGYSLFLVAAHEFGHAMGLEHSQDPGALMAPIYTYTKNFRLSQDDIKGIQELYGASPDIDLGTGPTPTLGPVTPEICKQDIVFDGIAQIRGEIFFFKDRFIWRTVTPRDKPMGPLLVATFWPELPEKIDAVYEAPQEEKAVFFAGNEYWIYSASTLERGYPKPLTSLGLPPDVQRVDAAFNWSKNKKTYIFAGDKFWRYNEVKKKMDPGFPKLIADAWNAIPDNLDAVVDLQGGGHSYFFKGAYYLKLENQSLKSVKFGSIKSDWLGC
Protocol: To examine the response of PMB 1 toward MMP-2 and cathepsin B, its absorption and fluorescence spectra were monitored in the presence of these stimuli at 37 °C over a period of 25 h, using the non-cleavable analogue 14 as the negative control. For studying the MMP-2-responsive effect, MMP-2 (2 μg mL^–1) in PBS at pH 7.4 was used to mimic the high serum levels of this enzyme in patients with cancer.[68] The effect of cathepsin B (using a concentration of 1 unit mL^–1) was studied in the working buffer mentioned above at pH 5.0 to mimic the lysosomal environment.[69] […] Similar results were obtained for the study using cathepsin B in the buffer (Figure S8e–h). […] The more flexible ring-opening structure, however, might slightly increase the separation of the two moieties, leading to a lower FRET efficiency,[70] which could explain the small increase in fluorescence intensity. For comparison, the effect of these enzymes was also studied for 14. As expected, both the absorption and fluorescence spectra were not changed toward these two enzymes (Figure S9).
The fluorescence recovery was then determined for 1 under the aforementioned conditions, assuming that the fluorescence intensity of 8 at the same concentration in the same medium was the maximum fluorescence intensity that could be recovered. […] In addition, we also determined the corresponding on/off ratios by dividing the fluorescence intensity at 25 h by the initial fluorescence intensity under each of these conditions. […]
To further confirm that the restoration of fluorescence emission and singlet oxygen generation of PMB 1 was due to the cleavage by the enzymes, LC–MS was used to analyze the reaction mixtures (Figure 4). […] Similarly, for the mixture obtained after treating 1 (1 μM) with cathepsin B (1 unit mL^–1) in the working buffer at pH 5.0 for 6 h, a new signal with virtually the same retention time was detected in the chromatogram (Figure 4a–c). […]
All of the solutions were stirred continuously at 37 °C. The ir electronic absorption and fluorescence spectra were monitored over a period of 25 h. […]

MMP-2 and cathepsin B = test: Dual-enzyme (sequential MMP-2 then cathepsin B) activation: fluorescence, singlet oxygen, LC-MS; assay type: biochemical; conditions: for singlet oxygen generation (DPBF decay at 417 nm) after enzyme treatment: DPBF 30 μM, sequential MMP-2 and cathepsin B, irradiation λ > 610 nm, 300 s
Protocol: To study the dual-enzyme-activated effect, PMB 1 was first treated with MMP-2 (2 μg mL^–1) in PBS for 6 h, followed by the addition of NaOAc, EDTA, and GSH and adjustment of the pH to 5.0 to create a working environment for cathepsin B. This enzyme (1 unit mL^–1) was then added, and the mixture was stirred for a further 19 h. […] The intensity at 25 h was almost the same as that at 24 h, which could be regarded as full activation, arising from the complete separation of the two components. In contrast, the absorption and fluorescence spectra of 14 remained unchanged upon this treatment (Figure S10).
The fluorescence recovery was then determined for 1 under the aforementioned conditions, assuming that the fluorescence intensity of 8 at the same concentration in the same medium was the maximum fluorescence intensity that could be recovered. The results are depicted in Figure 3c. […] In addition, we also determined the corresponding on/off ratios by dividing the fluorescence intensity at 25 h by the initial fluorescence intensity under each of these conditions. […] For 14, the ratios were below 1.5 under all the conditions, showing that the effect of the two enzymes was negligible for this conjugate.
Apart from the activation in fluorescence emission, the activation of 1 in singlet oxygen generation was also studied. PMB 1 (1 μM) was treated with MMP-2 and/or cathepsin B as described above and then mixed with DPBF (30 μM). The absorption spectra of these mixtures were monitored during light irradiation (λ > 610 nm) over a period of 300 s. […] The decrease in absorbance became more substantial for 1 after the treatment with both enzymes. As expected, the changes were negligible for 14 under all conditions (Figure S12).
To study the dual-enzyme-activated effect, PMB 1 was treated with MMP-2 (for 6 h) and cathepsin B (for 19 h) sequentially as mentioned above. […]
where W and Iabs are the DPBF photobleaching rate and the rate of light absorption, […]
MMP-2 and Cathepsin B-Responsive Spectroscopic Studies
Compound 1 or 14 was dissolved in DMF to form a 1 mM stock solution, which was then diluted to 1 μM with PBS at pH 7.4 or buffer solution (pH 5.0, 25 mM NaOAc, 1 mM EDTA, 500 μM GSH), both in the presence of 0.1% Tween 80 (v/v) . For the MMP-2-responsive studies, the solutions in PBS were treated with MMP-2 (2 μg mL-1). For the cathepsin B-responsive studies, the solutions in buffer solution were treated with cathepsin B (1 unit mL-1). For the dual-enzyme-responsive studies, the solutions in PBS were first treated with MMP-2 (2 μg mL-1) for 6 h, followed by the treatment with cathepsin B (1 unit mL-1) after the addition of NaOAc, EDTA, and GSH and adjustment of the pH, turning into the conditions of the buffer solution.
All of the solutions were stirred continuously at 37 °C. The ir electronic absorption and fluorescence spectra were monitored over a period of 25 h.
MMP-2- and Cathepsin B-Responsive Singlet Oxygen Generation Studies […]
halogen lamp after passing through a water tank for cooling and a color glass filter (Newport) cut-on at λ = 610 nm. The decay of DPBF at λ = 417 nm was monitored with a spectrophotometer during the irradiation period. […]
According to the above procedure, 1 and 14 were treated with MMP-2 and cathepsin B. After a period of 25 h, MeOH was added into the solutions for precipitating the enzymes. After filtration, the filtrate was analyzed by LC-MS using the aforementioned conditions. […]

Structure (SMILES) | LC-MS signal of intact compound after enzyme treatment (MMP-2; MMP-2 (2 μg mL-1) in PBS, 6 h, new signal at 14.7 min (15)) | on/off ratio (fluorescence intensity at 25 h / initial intensity) (MMP-2) | singlet oxygen generation (DPBF decay at 417 nm) after enzyme treatment (MMP-2 and cathepsin B; 1 μM) | on/off ratio (fluorescence intensity at 25 h / initial intensity) (MMP-2 and cathepsin B; 1 μM, MMP-2 6 h then cathepsin B 19 h, 37 °C) | fluorescence recovery (MMP-2 and cathepsin B; 1 μM, MMP-2 (2 μg mL-1) in PBS 6 h, then cathepsin B (1 unit mL-1) pH 5.0 buffer 19 h, 37 °C, relative to 8) | LC-MS signal of intact compound after enzyme treatment (MMP-2 and cathepsin B; MMP-2 6 h then cathepsin B 19 h, fragments 17 and 18 formed)
CCN(CC)c1ccc2nc3ccc(/N=N/c4ccc(N(C)CCCNC(=O)OC[C@@H]5[C@@H]6CCc7nnn(CC(=O)NCCCC[C@@H]8NC(=O)CNC(=O)[C@H](CCCCN)NC(=O)[C@H](CCCNC(=N)N)NC(=O)[C@H](C(C)C)NC(=O)CNC(=O)[C@H](CC(C)C)NC(=O)[C@@H]9CCCN9C(=O)[C@H](CCCCN)NC(=O)[C@@H](N)CSCc9cc(COc%10ccc(C%11=C%12C(C)=C(I)C(/C=C/c%13ccc(OCCOCCOCCOC)cc%13)=[N+]%12[B-](F)(F)n%12c(/C=C/c%13ccc(OCCOCCOCCOC)cc%13)c(I)c(C)c%12%11)cc%10)cc(c9)CSC[C@@H](C(N)=O)NC(=O)[C@H](CCCCN)NC(=O)[C@H](CCCCN)NC(=O)CNC(=O)[C@H](CC(C)C)NC(=O)[C@H](Cc9ccccc9)NC(=O)CNC(=O)[C@H](CCCCN)NC(=O)CNC8=O)c7CC[C@@H]65)cc4)cc3[n+](-c3ccccc3)c2c1 [compound 1] | disappeared | ca. 2.7 | turned on remarkably | 16 | 85% | disappearance of the signal of 1
CCN(CC)c1ccc2nc3ccc(/N=N/c4ccc(N(C)CCCNC(=O)OC[C@@H]5[C@@H]6CCc7nnn(CC(=O)NCCCC[C@@H]8NC(=O)CNC(=O)[C@H](CCCCN)NC(=O)CNC(=O)CNC(=O)CNC(=O)CNC(=O)CNC(=O)[C@H](CCCCN)NC(=O)[C@@H](N)CSCc9cc(COc%10ccc(C%11=C%12C(C)=C(I)C(/C=C/c%13ccc(OCCOCCOCCOC)cc%13)=[N+]%12[B-](F)(F)n%12c(/C=C/c%13ccc(OCCOCCOCCOC)cc%13)c(I)c(C)c%12%11)cc%10)cc(c9)CSC[C@@H](C(N)=O)NC(=O)[C@H](CCCCN)NC(=O)[C@H](CCCCN)NC(=O)CNC(=O)CNC(=O)CNC(=O)CNC(=O)[C@H](CCCCN)NC(=O)CNC8=O)c7CC[C@@H]65)cc4)cc3[n+](-c3ccccc3)c2c1 [compound 14] |  | below 1.5 | negligible |  |  | 
